Assay results taken from ChEMBL document CHEMBL1221332, “[3-azabicyclo[3.1.0]hex-1-yl]phenyl-benzenesulfonamides as selective dopamine D3 antagonists” (Bioorg Med Chem Lett, 2010).

Legend:
D(2) dopamine receptor = D(2) dopamine receptor (Homo sapiens, UniProt P14416)
Description: Antagonist activity at dopamine D2 receptor by GTPgammaS binding assay

D(3) dopamine receptor = D(3) dopamine receptor (Homo sapiens, UniProt P35462); assay: Antagonist activity at dopamine D3 receptor by GTPgammaS binding assay; format: functional
[1] = molecular target: Voltage-gated inwardly rectifying potassium channel KCNH2 (Homo sapiens, UniProt Q12809)
[2] = Ratio of drug level in brain to plasma in rat; format: ADME

Chain of D(2) dopamine receptor (P14416 whole entry): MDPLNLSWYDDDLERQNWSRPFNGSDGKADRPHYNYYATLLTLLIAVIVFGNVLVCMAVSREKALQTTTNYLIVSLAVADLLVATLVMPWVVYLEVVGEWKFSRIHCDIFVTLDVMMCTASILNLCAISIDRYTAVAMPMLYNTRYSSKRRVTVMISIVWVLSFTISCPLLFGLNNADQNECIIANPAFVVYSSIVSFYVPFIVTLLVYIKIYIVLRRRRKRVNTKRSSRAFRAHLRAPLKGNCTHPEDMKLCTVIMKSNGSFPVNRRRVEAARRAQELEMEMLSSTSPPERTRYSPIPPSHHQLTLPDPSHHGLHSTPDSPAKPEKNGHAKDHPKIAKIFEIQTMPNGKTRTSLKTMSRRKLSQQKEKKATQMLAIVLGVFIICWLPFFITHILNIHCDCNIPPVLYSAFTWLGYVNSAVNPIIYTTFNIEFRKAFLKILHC
Chain of Voltage-gated inwardly rectifying potassium channel KCNH2 (Q12809 whole entry): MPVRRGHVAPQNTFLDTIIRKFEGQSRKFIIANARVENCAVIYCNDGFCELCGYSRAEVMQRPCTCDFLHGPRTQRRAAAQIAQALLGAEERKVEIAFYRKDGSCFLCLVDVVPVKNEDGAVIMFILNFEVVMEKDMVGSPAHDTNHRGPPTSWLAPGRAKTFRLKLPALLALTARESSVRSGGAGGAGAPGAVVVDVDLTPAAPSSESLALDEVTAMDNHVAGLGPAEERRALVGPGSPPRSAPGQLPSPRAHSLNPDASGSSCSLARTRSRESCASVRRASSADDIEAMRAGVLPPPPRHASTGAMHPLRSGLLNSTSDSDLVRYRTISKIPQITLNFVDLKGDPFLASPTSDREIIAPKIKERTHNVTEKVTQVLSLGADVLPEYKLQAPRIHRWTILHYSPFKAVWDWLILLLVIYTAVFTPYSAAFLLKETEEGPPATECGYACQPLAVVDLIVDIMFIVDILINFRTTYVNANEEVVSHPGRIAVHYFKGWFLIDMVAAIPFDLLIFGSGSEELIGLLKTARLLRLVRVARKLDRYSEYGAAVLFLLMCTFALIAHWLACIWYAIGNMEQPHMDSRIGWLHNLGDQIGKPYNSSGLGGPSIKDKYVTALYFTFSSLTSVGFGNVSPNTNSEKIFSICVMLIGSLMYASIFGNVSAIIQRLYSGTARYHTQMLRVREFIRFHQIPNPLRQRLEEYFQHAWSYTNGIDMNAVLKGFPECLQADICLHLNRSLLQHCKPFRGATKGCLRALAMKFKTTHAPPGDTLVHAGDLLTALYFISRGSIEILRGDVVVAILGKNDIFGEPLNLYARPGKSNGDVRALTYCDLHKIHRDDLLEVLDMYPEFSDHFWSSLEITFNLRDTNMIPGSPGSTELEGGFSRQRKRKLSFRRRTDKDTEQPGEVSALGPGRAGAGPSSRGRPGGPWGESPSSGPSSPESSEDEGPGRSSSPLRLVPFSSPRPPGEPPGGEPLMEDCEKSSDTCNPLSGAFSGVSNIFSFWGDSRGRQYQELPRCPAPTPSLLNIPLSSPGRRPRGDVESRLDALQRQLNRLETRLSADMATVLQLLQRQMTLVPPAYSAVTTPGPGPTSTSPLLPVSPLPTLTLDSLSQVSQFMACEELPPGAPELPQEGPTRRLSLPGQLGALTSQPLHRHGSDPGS
Chain of D(3) dopamine receptor (P35462 whole entry): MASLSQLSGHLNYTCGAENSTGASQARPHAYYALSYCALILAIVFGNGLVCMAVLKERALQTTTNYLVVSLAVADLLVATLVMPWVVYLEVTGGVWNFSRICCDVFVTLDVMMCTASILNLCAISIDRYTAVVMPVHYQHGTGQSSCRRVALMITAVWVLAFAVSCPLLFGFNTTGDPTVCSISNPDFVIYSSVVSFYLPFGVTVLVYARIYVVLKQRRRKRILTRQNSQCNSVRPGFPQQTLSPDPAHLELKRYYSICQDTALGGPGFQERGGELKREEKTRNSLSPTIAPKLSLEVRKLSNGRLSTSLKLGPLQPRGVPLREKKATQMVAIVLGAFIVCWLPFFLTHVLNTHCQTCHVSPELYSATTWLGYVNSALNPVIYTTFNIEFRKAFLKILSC

| Ki (D(2) dopamine receptor) | Ki (D(3) dopamine receptor) | Kp [2] | SMILES | IC50 [1] |
| --- | --- | --- | --- | --- |
| 50.1 nM | 6.31 nM | – | CCC(C)(C)c1ccc(S(=O)(=O)Nc2ccc([C@]34CNC[C@H]3C4)cc2)cc1 | – |
| 1000 nM | 631 nM | – | O=S(=O)(Nc1ccc([C@]23CNC[C@H]2C3)cc1)c1ccc(OC(F)(F)F)cc1 | 10000 nM |
| 63.1 nM | 2.51 nM | – | C=CCN1C[C@H]2C[C@@]2(c2ccc(NS(=O)(=O)c3ccc(C(C)C)cc3)cc2)C1 | 100 nM |
| > 3160 nM | 251 nM | – | O=S(=O)(Nc1ccc([C@]23CNC[C@H]2C3)cc1)c1ccc(C(F)(F)F)cc1 | 794 nM |
| 50.1 nM | – | – | COc1cc([C@]23CNC[C@H]2C3)ccc1NS(=O)(=O)c1ccc(C(C)C)cc1 | – |
| – | 200 nM | – | CC(C)c1ccc(S(=O)(=O)Nc2ccc(C34CNCC3C4)cc2)cc1 (single isomer, unassigned; enantiomer 2) | 1580 nM |
| 126 nM | 5.01 nM | – | CCCCc1ccc(S(=O)(=O)Nc2ccc([C@]34CNC[C@H]3C4)cc2)cc1 | – |
| – | 3.98 nM | – | CC(C)c1ccc(S(=O)(=O)Nc2ccc(C34CNCC3C4)cc2)cc1 (single isomer, unassigned; enantiomer 1) | 5010 nM |
| 100 nM | 7.94 nM | – | CCN1C[C@H]2C[C@@]2(c2ccc(NS(=O)(=O)c3ccc(C(C)C)cc3)cc2)C1 | 1260 nM |
| – | 2.51 nM | – | CC(C)c1ccc(S(=O)(=O)Nc2ccc([C@]34CNC[C@H]3C4)cc2)cc1 (racemic) | 1000 nM |
| 63.1 nM | 6.31 nM | 7.3 | CC(C)c1ccc(S(=O)(=O)Nc2ccc([C@@]34C[C@@H]3CN(C)C4)cc2)cc1 | 1580 nM |
| 501 nM | 79.4 nM | – | CN(c1ccc([C@]23CNC[C@H]2C3)cc1)S(=O)(=O)c1ccccc1 | > 63100 nM |

| SMILES | Ki (D(2) dopamine receptor) | Ki (D(3) dopamine receptor) | Kp [2] | IC50 [1] |
| --- | --- | --- | --- | --- |
| CC(C)c1ccc(CS(=O)(=O)c2ccc([C@]34CNC[C@H]3C4)cc2)cc1 | > 3160 nM | 25.1 nM | – | 3160 nM |
| CC(C)c1ccc(S(=O)(=O)Cc2ccc([C@]34CNC[C@H]3C4)cc2)cc1 | 316 nM | 25.1 nM | – | 1260 nM |
